Laboratory results taken from patent publication US20250032460A1, “METHODS OF TREATING NEUROLOGICAL DISORDERS” (MapLight Therapeutics, Inc., priority 2021, published 2025).
“And” between values parts separate entries of the source, which are not always exact repeats. Equal entries are not always repeated.

What was measured:
[1] = Post-procedure plasma exposure (salivation study); type: in vivo, Sprague Dawley rats
Experimental: An in vivo primary pharmacology study evaluating the fesoterodine fumarate dose-response antagonistic effect on Compound 1 induced salivation in anaesthetized male Sprague Dawley rats was conducted. […] Intravenous fesoterodine doses were administered at […]. Fesoterodine was dosed 10 minutes prior to dosage of Compound 1. All animals were normal with no observed abnormality detected in clinical signs or behavior. Salivation was measured by using oral dry swab in anesthetized rats with the calculated difference between the dry swab weight and the wet swab weight indicating the weight of saliva produced. Samples were collected post-dosing for one hour at 10-minute intervals.
At the end of the study period, plasma samples were collected to measure exposure of Compound 1, fesoterodine fumarate, and fesoterodine active metabolite 5-hydroxymethyl tolterodine (5-HMT), also referred to as desfesoterodine, is summarized in Table 2.

[2] = Single ascending dose study: pharmacokinetics (plasma, CSF); type: in vivo; conditions: Group 2, fesoterodine fumarate 8 mg 4 hours prior to 40 mg Compound 1
Experimental: Compound 1 was administered in a single ascending dose (SAD) study conducted in approximately 54 healthy adult volunteers to investigate Compound 1 pharmacokinetics, safety, and tolerability. The study was conducted in two groups.
Group 2 evaluated tolerability of Compound 1 at Group 1 MTD with or without fesoterodine fumarate co-administration. Subjects received 8 mg of fesoterodine fumarate tablet or matched placebo tablet 4 hours prior to administration of 40 mg of Compound 1.

[3] = Plasma concentrations during 7-day oral dosing in beagle dogs; type: in vivo
[4] = Group 2: fesoterodine fumarate 3 mg/kg/day PO alone, Day 1, 0.25 h
[5] = Group 2: fesoterodine fumarate 3 mg/kg/day PO alone, Day 1, 0.5 h
[6] = Group 2: fesoterodine fumarate 3 mg/kg/day PO alone, Day 1, 1 h
[7] = Group 2: fesoterodine fumarate 3 mg/kg/day PO alone, Day 1, 2 h
[8] = Group 2: fesoterodine fumarate 3 mg/kg/day PO alone, Day 1, 4 h
[9] = Group 2: fesoterodine fumarate 3 mg/kg/day PO alone, Day 1, 8 h
[10] = Group 2: fesoterodine fumarate 3 mg/kg/day PO alone, Day 7, 0.25 h
[11] = Group 2: fesoterodine fumarate 3 mg/kg/day PO alone, Day 7, 0.5 h
[12] = Group 2: fesoterodine fumarate 3 mg/kg/day PO alone, Day 7, 1 h
[13] = Group 2: fesoterodine fumarate 3 mg/kg/day PO alone, Day 7, 2 h
[14] = Group 2: fesoterodine fumarate 3 mg/kg/day PO alone, Day 7, 4 h
[15] = Group 2: fesoterodine fumarate 3 mg/kg/day PO alone, Day 7, 8 h

**Q.** Which “Plasma Concentration 1-Hour Post-procedure (mean value), Desfesoterodine (5-HMT)” value ([1]; Fesoterodine 0.0078 mg/mL + Compound 1 (1.5 mg/kg)) does the source give for `CC(C)N(CCC(c1ccccc1)c1cc(CO)ccc1O)C(C)C` (stereo not shown) [desfesoterodine, 5-hydroxymethyl tolterodine] here?
**A.** The value was “BLQ”.

**Q.** What about the “Plasma Concentration 1-Hour Post-procedure (mean value), Desfesoterodine (5-HMT)” value ([1]; Fesoterodine 0.0156 mg/mL + Compound 1 (1.5 mg/kg)) of the same molecule?
**A.** The value was “BLQ”.

**Q.** And the “Plasma Concentration 1-Hour Post-procedure (mean value), Desfesoterodine (5-HMT)” value ([1]; Fesoterodine 0.0312 mg/mL + Compound 1 (1.5 mg/kg))?
**A.** The value was “BLQ”.

**Q.** What about the “Plasma Concentration 1-Hour Post-procedure (mean value), Desfesoterodine (5-HMT)” value ([1]; Fesoterodine 0.0625 mg/mL + Compound 1 (1.5 mg/kg)) of the same molecule?
**A.** Its value is “BLQ”.

**Q.** What about the “Plasma Concentration 1-Hour Post-procedure (mean value), Desfesoterodine (5-HMT)” value ([1]; Fesoterodine 0.125 mg/mL + Compound 1 (1.5 mg/kg)) of the same molecule?
**A.** The value was “BLQ”.

**Q.** What about the “Plasma Concentration 1-Hour Post-procedure (mean value), Desfesoterodine (5-HMT)” value ([1]; Fesoterodine 0.25mg/mL + Compound 1 (1.5 mg/kg)) of the same molecule?
**A.** Its value is 5.15 ng/mL.

**Q.** What about the “Plasma Concentration 1-Hour Post-procedure (mean value), Desfesoterodine (5-HMT)” value ([1]; Fesoterodine 0.5 mg/mL + Compound 1 (1.5 mg/kg)) of the same molecule?
**A.** Its value is 6.19 ng/mL.

**Q.** What about the “mean desfesoterodine concentration in CSF at 1hour after administration of compound 1” value [2] of the same molecule?
**A.** Its value is 121.44 pg/mL.

**Q.** And the “Plasma concentration of desfesoterodine, Mean” value [3, 4]?
**A.** Its value is 87.775 ng/mL.

**Q.** And the “Plasma concentration of desfesoterodine, individual animals D2001-D2005” value [3, 4]?
**A.** Its value is 34.2 ng/ml and 267 ng/ml and 14 ng/ml and BQL and 35.9 ng/ml.

**Q.** And the “Plasma concentration of desfesoterodine, Mean” value [3, 5]?
**A.** The value was 75.32 ng/mL.

**Q.** What about the “Plasma concentration of desfesoterodine, individual animals D2001-D2005” value [3, 5] of the same molecule?
**A.** The value was 68.4 ng/mL and 176 ng/mL and 75.3 ng/mL and 23.2 ng/mL and 33.7 ng/mL.

**Q.** What about the “Plasma concentration of desfesoterodine, Mean” value [3, 6] of the same molecule?
**A.** Its value is 53.38 ng/mL.

**Q.** What about the “Plasma concentration of desfesoterodine, individual animals D2001-D2005” value [3, 6] of the same molecule?
**A.** Its value is 31.9 ng/mL and 104 ng/mL and 49.5 ng/mL and 67.6 ng/mL and 13.9 ng/mL.

**Q.** What about the “Plasma concentration of desfesoterodine, Mean” value [3, 7] of the same molecule?
**A.** The value was 25.296 ng/mL.

**Q.** What about the “Plasma concentration of desfesoterodine, individual animals D2001-D2005” value [3, 7] of the same molecule?
**A.** The value was 15.6 ng/mL and 48.4 ng/mL and 15.7 ng/mL and 41.4 ng/mL and 5.38 ng/mL.

**Q.** What about the “Plasma concentration of desfesoterodine, Mean” value [3, 8] of the same molecule?
**A.** Its value is 10.096 ng/mL.

**Q.** And the “Plasma concentration of desfesoterodine, individual animals D2001-D2005” value [3, 8]?
**A.** The value was 12.9 ng/mL and 15.4 ng/mL and 3.93 ng/mL and 14.9 ng/mL and 3.35 ng/mL.

**Q.** And the “Plasma concentration of desfesoterodine, Mean” value [3, 9]?
**A.** The value was 3.3175 ng/mL.

**Q.** And the “Plasma concentration of desfesoterodine, individual animals D2001-D2005” value [3, 9]?
**A.** The value was 4.42 ng/ml and 1.74 ng/ml and 2.96 ng/ml and 4.15 ng/ml and BQL.

**Q.** What about the “Plasma concentration of desfesoterodine, individual animals D2001-D2005” value ([3]; Group 2: fesoterodine fumarate 3 mg/kg/day PO alone, Day 1, 24 h) of the same molecule?
**A.** Its value is “BQL”.

**Q.** What about the “Plasma concentration of desfesoterodine, individual animals D2001-D2005” value ([3]; Group 2: fesoterodine fumarate 3 mg/kg/day PO alone, Day 7, 0 h) of the same molecule?
**A.** Its value is 1.13 ng/ml and BQL (4×).

**Q.** What about the “Plasma concentration of desfesoterodine, Mean” value [3, 10] of the same molecule?
**A.** The value was 103.4 ng/mL.

**Q.** What about the “Plasma concentration of desfesoterodine, individual animals D2001-D2005” value [3, 10] of the same molecule?
**A.** The value was 15.3 ng/mL and 315 ng/mL and 121 ng/mL and 47.3 ng/mL and 18.4 ng/mL.

**Q.** And the “Plasma concentration of desfesoterodine, Mean” value [3, 11]?
**A.** The value was 167.64 ng/mL.

**Q.** And the “Plasma concentration of desfesoterodine, individual animals D2001-D2005” value [3, 11]?
**A.** The value was 318 ng/mL and 274 ng/mL and 154 ng/mL and 75.6 ng/mL and 16.6 ng/mL.

**Q.** And the “Plasma concentration of desfesoterodine, Mean” value [3, 12]?
**A.** Its value is 118.7 ng/mL.

**Q.** And the “Plasma concentration of desfesoterodine, individual animals D2001-D2005” value [3, 12]?
**A.** Its value is 173 ng/mL and 232 ng/mL and 111 ng/mL and 65.7 ng/mL and 11.8 ng/mL.

**Q.** And the “Plasma concentration of desfesoterodine, Mean” value [3, 13]?
**A.** Its value is 78.62 ng/mL.

**Q.** And the “Plasma concentration of desfesoterodine, individual animals D2001-D2005” value [3, 13]?
**A.** Its value is 91.9 ng/mL and 145 ng/mL and 72.6 ng/mL and 57.8 ng/mL and 25.8 ng/mL.

**Q.** What about the “Plasma concentration of desfesoterodine, Mean” value [3, 14] of the same molecule?
**A.** Its value is 45.66 ng/mL.

**Q.** What about the “Plasma concentration of desfesoterodine, individual animals D2001-D2005” value [3, 14] of the same molecule?
**A.** The value was 51.4 ng/mL and 48.6 ng/mL and 44 ng/mL and 40.8 ng/mL and 43.5 ng/mL.

**Q.** What about the “Plasma concentration of desfesoterodine, Mean” value [3, 15] of the same molecule?
**A.** The value was 8.066 ng/mL.

**Q.** What about the “Plasma concentration of desfesoterodine, individual animals D2001-D2005” value [3, 15] of the same molecule?
**A.** Its value is 8.12 ng/mL and 7.08 ng/mL and 6.52 ng/mL and 13.8 ng/mL and 4.81 ng/mL.

**Q.** What about the “Plasma concentration of desfesoterodine, individual animals D2001-D2005” value ([3]; Group 2: fesoterodine fumarate 3 mg/kg/day PO alone, Day 7, 24 h) of the same molecule?
**A.** The value was “BQL”.

**Q.** And the “Plasma concentration of desfesoterodine, individual animals D3001-D3005” value ([3]; Group 3: Compound 1 1.5 mg/kg/day PO + fesoterodine fumarate 3 mg/kg/day PO, Day 1, 0.00 h)?
**A.** The value was “BQL”.

**Q.** What about the “Plasma concentration of desfesoterodine, Mean” value ([3]; Group 3: Compound 1 1.5 mg/kg/day PO + fesoterodine fumarate 3 mg/kg/day PO, Day 1, 0.250 h) of the same molecule?
**A.** The value was 125 ng/mL.
